Assay results reported in ChEMBL document CHEMBL1944581, “Synthesis and characterization of fluorinated homocysteine derivatives as potential molecular probes for ¹⁹F magnetic resonance spectroscopy and imaging” (Bioorg Med Chem Lett, 2011).

What was measured:
Type in all cases: ADME
Albumin [1] = target: T1, Albumin (Homo sapiens, UniProt P02768); assay: Binding affinity to human serum albumin in phosphate buffer assessed as N-homocysteinylation of protein by MALDI-TOF scpectroscopy; settings: isolated protein
Albumin [2] = target: T1, Albumin; assay: Binding affinity to human serum albumin in phosphate buffer assessed as N-homocysteinylation of protein at 6.2 mM at pH 7.43 at 37 degC after 18 hrs by SDS-PAGE-based 19F-NMR spectroscopy; settings: isolated protein, pH 7.43, 18 h, 6200 µM
Albumin [3] = target: T1, Albumin; assay: Binding affinity to human serum albumin in human plasma assessed as protein N-homocysteinylation level at 37 degC for 27 hrs by SDS-PAGE-based 19F-NMR spectroscopy

Measured: Activity

T1 sequence (P02768 whole entry): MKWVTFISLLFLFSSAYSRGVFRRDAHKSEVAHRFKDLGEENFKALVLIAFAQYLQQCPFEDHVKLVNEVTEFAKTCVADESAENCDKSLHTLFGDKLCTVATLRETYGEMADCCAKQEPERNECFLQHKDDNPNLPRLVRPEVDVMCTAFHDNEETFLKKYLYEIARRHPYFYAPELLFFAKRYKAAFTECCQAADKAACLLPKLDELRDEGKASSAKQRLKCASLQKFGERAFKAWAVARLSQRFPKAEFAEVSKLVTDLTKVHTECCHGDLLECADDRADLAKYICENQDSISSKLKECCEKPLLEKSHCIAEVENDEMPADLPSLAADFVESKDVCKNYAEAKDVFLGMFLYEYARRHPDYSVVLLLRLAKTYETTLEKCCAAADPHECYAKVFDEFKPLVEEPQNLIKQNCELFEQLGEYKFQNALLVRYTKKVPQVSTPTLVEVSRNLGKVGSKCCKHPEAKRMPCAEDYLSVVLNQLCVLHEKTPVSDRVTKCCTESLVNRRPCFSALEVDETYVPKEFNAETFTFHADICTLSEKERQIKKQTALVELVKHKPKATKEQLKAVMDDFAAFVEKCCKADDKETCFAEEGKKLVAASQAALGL

O=C1SCCC1NC(=O)C(F)(F)F (stereo not drawn)
Active: all assays above
